Test results published in paper PMC9515202, “Bis-pharmacophore of cinnamaldehyde-clubbed thiosemicarbazones as potent carbonic anhydrase-II inhibitors” (Scientific Reports, 2022).

Legend:
[1] = target: bovine carbonic anhydrase II (bCA-II) (Bos taurus, UniProt P00921); assay: Carbonic anhydrase II (CA-II) inhibition, spectrophotometric p-nitrophenyl acetate assay; assay type: biochemical; conditions: pH 7.4, 25 °C; for IC50: bCA-II, substrate p-NPA, triplicate; for inhibition at 500 µM: pH 7.4, bCA-II, compound at 500 µM, read-out: % Inhibtion (500 µM)
Chain of bovine carbonic anhydrase II (bCA-II) (P00921 whole entry): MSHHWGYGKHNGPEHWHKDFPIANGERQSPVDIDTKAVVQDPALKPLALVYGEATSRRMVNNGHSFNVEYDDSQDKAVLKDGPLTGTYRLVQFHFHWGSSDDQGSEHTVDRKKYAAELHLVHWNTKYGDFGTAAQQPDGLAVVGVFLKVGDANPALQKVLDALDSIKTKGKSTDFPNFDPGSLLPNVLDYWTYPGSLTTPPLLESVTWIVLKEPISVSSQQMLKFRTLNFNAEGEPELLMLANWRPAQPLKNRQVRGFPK
Description: Evaluation of carbonic anhydrase inhibition was done by spectrophotometric technique as narrated by Pocker and Meany with little alteration[69],[70] as described previously. The process was carried out in HEPES-Tris buffer (20 mM) having pH 7.4 at 25 °C. Each inhibitory well contained 20 µL of CA-II enzyme solution (0.1 mg/mL HEPES-Tris buffer), 140 µL of HEPES-Tris buffer solution, 20 µL of the compound to be analyzed in HPLC grade DMSO. At 25 °C, the solution mixture was pre-incubated for 15 min. Substrate p-nitrophenyl acetate (p-NPA) (0.7 mM) was prepared in HPLC grade methanol and the reaction was initiated by the addition of 20 µL to a well in a 96-well-plate. The quantity of product formed was measured at 400 nm continually at 1 min gap for 30 min in a 96-well-plate using xMARK microplate spectrophotometer, Bio-Rad (USA). The inhibition activity of the controlled compound was considered as 100%. All the experiments were performed in triplicates of each used concentration, and the conclusions are expressed as a mean of the triplicate.
All thiosemicarbazones derivatives (3a–q) were tested against bovine carbonic anhydrase II (bCA-II).

Compound | melting point | IC50 [1] | inhibition at 500 µM [1]
Cc1ccc(NC(=S)N/N=C/C=C/c2ccc(N(C)C)cc2)cc1 [3a, (E)-2-((E)-3-(4-(Dimethylamino)phenyl)allylidene)-N-(p-tolyl)hydrazine-1-carbothioamide] | 232 °C | 46.6 ± 0.62 µM | 82%
CN(C)c1ccc(/C=C/C=N/NC(=S)Nc2ccc(Br)cc2)cc1 [3g, (E)-N-(4-Bromophenyl)-2-((E)-3-(4-(dimethylamino)phenyl)allylidene)hydrazine-1-carbothioamide] | 240 °C | 12.1 ± 1.01 µM | 93%
CN(C)c1ccc(/C=C/C=N/NC(=S)NCCc2ccccc2)cc1 [3c] | 180 °C |  | 
COc1cccc(NC(=S)N/N=C/C=C/c2ccc(N(C)C)cc2)c1 [3f, (E)-2-((E)-3-(4-(Dimethylamino)phenyl)allylidene)-N-(3-methoxyphenyl)hydrazine-1-carbothioamide] | 198 °C | 17.9 ± 1.23 µM | 89.7%
CC(C)c1ccc(NC(=S)N/N=C/C=C/c2ccc(N(C)C)cc2)cc1 [3i, (E)-2-((E)-3-(4-(Dimethylamino)phenyl)allylidene)-N-(4-isopropylphenyl)hydrazine-1-carbothioamide] | 220 °C | 33.6 ± 0.42 µM | 84.9%
CN(C)c1ccc(/C=C/C=N/NC(=S)Nc2ccc(Cl)cc2)cc1 [3m, (E)-N-(4-Chlorophenyl)-2-((E)-3-(4-(dimethylamino)phenyl)allylidene)hydrazine-1-carbothioamide] | 238 °C | 14.7 ± 1.42 µM | 79.9%
CN(C)c1ccc(/C=C/C=N/NC(=S)NCc2ccc(Cl)cc2)cc1 [3k] | 196 °C |  | 
CN(C)c1ccc(/C=C/C=N/NC(=S)Nc2ccc(F)cc2F)cc1 [3h, (E)-N-(2,4-Difluorophenyl)-2-((E)-3-(4-(dimethylamino)phenyl)allylidene)hydrazine-1-carbothioamide] | 202 °C | 13.4 ± 0.52 µM | 77.1%
CN(C)c1ccc(/C=C/C=N/NC(=S)NCc2ccc(F)cc2)cc1 [3n] | 192 °C | 10.3 ± 0.62 µM | 63.2%
CN(C)c1ccc(/C=C/C=N/NC(=S)Nc2ccccc2F)cc1 [3e, (E)-2-((E)-3-(4-(Dimethylamino)phenyl)allylidene)-N-(2-fluorophenyl)hydrazine-1-carbothioamide] | 189 °C | 19.7 ± 0.23 µM | 93.4%
CN(C)c1ccc(/C=C/C=N/NC(=S)Nc2cccc(F)c2)cc1 [3j, (E)-2-((E)-3-(4-(Dimethylamino)phenyl)allylidene)-N-(3-fluorophenyl)hydrazine-1-carbothioamide] | 218 °C |  | < 50%
CN(C)c1ccc(/C=C/C=N/NC(=S)Nc2cccc(Cl)c2Cl)cc1 [3d, (E)-N-(2,3-Dichlorophenyl)-2-((E)-3-(4-(dimethylamino)phenyl)allylidene)hydrazine-1-carbothioamide] | 192 °C | 36.6 ± 0.15 µM | 82.2%
CN(C)c1ccc(/C=C/C=N/NC(=S)Nc2ccccc2)cc1 [3p, (E)-2-((E)-3-(4-(Dimethylamino)phenyl)allylidene)-N-phenylhydrazine-1-carbothioamide] | 218 °C |  | 
CN(C)c1ccc(/C=C/C=N/NC(=S)NC2CCCCC2)cc1 [3q, (E)-N-Cyclohexyl-2-((E)-3-(4-(dimethylamino)phenyl)allylidene)hydrazine-1-carbothioamide] | 252 °C |  | 
Cc1cccc(C)c1NC(=S)N/N=C/C=C/c1ccc(N(C)C)cc1 [3b, (E)-2-((E)-3-(4-(Dimethylamino)phenyl)allylidene)-N-(2,6-dimethylphenyl)hydrazine-1-carbothioamide] | 239 °C | 40.4 ± 0.89 µM | 78.1%
Cc1ccc(NC(=S)N/N=C/C=C/c2ccc(N(C)C)cc2)c(C)c1 [3l, (E)-2-((E)-3-(4-(Dimethylamino)phenyl)allylidene)-N-(2,4-dimethylphenyl)hydrazine-1-carbothioamide] | 232 °C | 18.3 ± 1.32 µM | 78.2%
CN(C)c1ccc(/C=C/C=N/NC(=S)Nc2cccc(C#N)c2)cc1 [3o, (E)-N-(3-Cyanophenyl)-2-((E)-3-(4-(dimethylamino)phenyl)allylidene)hydrazine-1-carbothioamide] | 215 °C | 21.8 ± 0.85 µM | 81.8%
